Assay results: patent US6630177B1, “Products extracted from a plant of the genus Commiphora, particularly the Commiphora mukul plant, extracts containing same and applications thereof, for example in cosmetics” (Parfums Christian Dior, priority 1995, dated 2003)
Entries after “also recorded” stand apart in the source; their conditions may differ.

What was measured:
3T3 F442A = experiment: Determination of the glycero-3-phosphate dehydrogenase (G3PDH) activity in treated fibroblast (preadipocyte) cultures; assay type: cell-based, murine; conditions: for Rate of conversion of NADH: 3T3 F442A cultures treated at 5 μg/ml on D+5, D+7, D+9, G3PDH assayed on D+12, mean of three experiments; for Activity A1 (stimulation of G3PDH activity versus control cultures): 3T3 F442A cultures, calculated from Vp and Vt
Description: The cells used are 3T3 F442A, which constitute a line of murine preadipocytes selected for their ability to convert to adipocytes if the culture conditions allow, in accordance with the method of Green, H. & Kehinde, C., Cell 1 (1974) 113.
The aim was to measure the expression of two differentiation markers, namely glycero-3-phosphate dehydrogenase (G3PDH) on the one hand and cyclic AMP (cAMP) on the other.
It is pointed out here that the enzyme G3PDH allows the formation, in the fibroblast, of glycerol 3-phosphate, a molecule which is subsequently involved in the synthesis of the intracellular lipids (triglycerides). Thus an increase in the activity of the G3PDH is directly linked to an increase in this synthesis.
The fibroblasts are inoculated at the bottom of Petri dishes of diameter 35 mm in Dulbecco's Modified Eagle's Medium (DMEM), in the presence of 5% of calf serum (CS) and 5% of fetal calf serum (FCS). Each experiment is performed in triplicate.
During the treatment phase, the medium consists of DMEM+10% of fetal calf serum.
The product or extract according to the invention is dissolved in ethanol and used on the cultures at a final concentration of 5 μg/ml.
On day D+5: treatment with resin of Commiphora mukul (extract G), FIIB1 or IIa or IIb at 5 μg/ml in DMEM, 10% FCS
On days D+7 and D+9: treatment identical to that performed on D+5
On day D+12: grinding of the cells for assay of G3PDH.
The cellular monolayer is recovered by scraping and vigorously homogenized in TRIS-HCl buffer (25 mM, pH 7.4), 1 mM EDTA, at 4° C. The G3PDH activity is determined on the supernatant of the ground cellular material immediately after centrifugation.
It is possible to calculate an absorption difference (ΔAbs)/min, which corresponds to the initial rate of the enzymatic reaction.
The results are expressed in terms of specific activity, i.e. in nmol of NADH converted/min/mg of cellular proteins (the total cellular protein content is evaluated by the method of BCA—PIERCE: protein assay reagent).
The activity Al of the products according to the invention on stimulation of the activity of this enzyme is calculated according to the following formula: [formula]
Vp is the mean value, over the three experiments, of the rate of conversion of NADH, expressed in nmol/min/mg of cellular proteins, in the cultures treated with the products according to the invention,
Vt is the mean value of this rate in the control cultures.

fibroblasts in culture = experiment: Lipogenic activity of the fractions on fibroblasts in culture; assay type: cell-based; conditions: result in words
Procedure: In a first step, the extract G is subjected to a series of fractionations by high performance liquid chromatography. Each fraction is tested for its lipogenic activity on fibroblasts in culture using the method explained below. These different fractionations ultimately yield an active fraction, FIIB, whose characteristic peaks are identified on the chromatogram.

| Structure (SMILES) | Rate of conversion of NADH (3T3 F442A) | Activity A1 (stimulation of G3PDH activity versus control cultures) (3T3 F442A; 5 μg/ml) | Lipogenic activity (fibroblasts in culture) | Increase of the activity of the enzyme G3PDH compared with control cultures (3T3 F442A; fibroblast cultures, 5 μg/ml) |
| --- | --- | --- | --- | --- |
| C/C(=C\CC/C(C)=C/CC/C(C)=C/CC[C@@H]1[C@@]2(C)CCC(=O)C(C)(C)[C@@H]2CC[C@@]1(C)O)CO [IIa, (5R, 10S,8R,9R)-3-oxopolypoda-13E,17E,21E-triene-8,30-diol] | 222 ± 88 nmol/min/mg of proteins | 348% | give the best results; also recorded: substantially equivalent |  |
| C/C(=C\CC/C(C)=C/CC[C@@H]1[C@@]2(C)CCC(=O)C(C)(C)[C@@H]2CC[C@@]1(C)O)CC/C=C(\C)C(=O)O [IIb, (5R,10S,8R,9R)-8-hydroxy-3-oxopolypoda-13E,17E,21 E-trien-30-oic acid] | 352 ± 62 nmol/min/mg of proteins | 610% | give the best results; also recorded: substantially equivalent | 7 fold |
